Reference: patent US20230192661A1, “1, 4, 5, 6-TETRAHYDROPYRIMIDINE-2-AMINE DERIVATIVE” (UBE Corporation, priority 2020, published 2023)

Legend:
[1] = Transcellular transport test using Caco2 cell; format: in vitro ADME; details: human, Caco-2; Caco2 monolayer, A-to-B, 10 μM compound, pH 7.4, 90 minutes
Procedure: Caco2 cells (purchased from ATCC) were cultured in DMEM medium (Thermo Fisher Scientific, Inc., 11965) containing 10% FBS (Thermo Fisher Scientific, Inc., 10082) and 1% penicillin/streptomycin/amphotericin B (Thermo Fisher Scientific, Inc., 15240). A transcellular transport test was carried out in accordance with MultiScreen Caco2 Drug Transport Assembly in a 96-well system (Application Note AN1727EN, MultiScreen Caco-2 Assay System, Merck) by partially modifying it. The Caco2 cells were inoculated at a cell density of 4×10^4 cells/well onto a micropore polycarbonate insert of a 96-well plate (Merck, Millcell-96 culture insert plate 0.4 μm pore size, well membrane area=0.11 cm^2, PSHT004S5) and cultured for 20 to 22 days, and the resulting monolayer was used in the transcellular transport test. The medium of the inoculated cells was replaced with a fresh one every 3 to 4 days.
Apical-to-basolateral (A-to-B) transport in the Caco2 cell monolayer membrane was performed by using HBSS (Thermo Fisher Scientific, Inc., 14025) medium (pH=7.4) containing 20 mM HEPES (Thermo Fisher Scientific, Inc., 15630), and adding HEPES-containing HBSS medium containing 10 μM compound (a 10 mM solution of the compound in DMSO was added at a 1000-fold dilution; final DMSO concentration: 0.1%) at 75 μL/well to the apical side and HEPES-containing HBSS medium supplemented with no compound at 250 μL/well to the basolateral side, followed by culture at 37° C. for 90 minutes. After culture, a 100 μL aliquot was collected from the basolateral side, and the concentration of a permeated compound was measured by LC-MS/MS under measurement conditions mentioned later. Papp (apparent permeability; cm/sec) was calculated from the determined concentration. Papp was determined according to the expression given below by calculating the slope (dA/dt; nmol/sec) of a straight line drawn between two points 0 minutes and zero amount of the compound in a graph plotted with an assay time (90 min) on the abscissa against the amount of the compound in the solution on the permeated side on the ordinate. As for an assay concentration, the concentration in the compound in the HEPES-containing HBSS medium containing the added compound was measured by UV-HPLC under measurement conditions mentioned later.
Papp (cm/sec)=C0×S×(dA/dt)
C0: assay concentration, S: plate membrane area=0.11 cm^2

αvβ6 = target: T1, αvβ6 (Homo sapiens, UniProt P06756+P18564); assay: αvβ6 cell adhesion inhibition test (HT-29 cells on recombinant human LAP protein); format: cell-based; details: recombinant human LAP coating, 200 μM MnCl2, 1 hour, read-out: IC50 (rate of inhibition of cell adhesion, αvβ6)
T1 construct: endogenous in cells; host or cells: HT-29 cells
T1 sequence (P06756 31-889 limits assumed): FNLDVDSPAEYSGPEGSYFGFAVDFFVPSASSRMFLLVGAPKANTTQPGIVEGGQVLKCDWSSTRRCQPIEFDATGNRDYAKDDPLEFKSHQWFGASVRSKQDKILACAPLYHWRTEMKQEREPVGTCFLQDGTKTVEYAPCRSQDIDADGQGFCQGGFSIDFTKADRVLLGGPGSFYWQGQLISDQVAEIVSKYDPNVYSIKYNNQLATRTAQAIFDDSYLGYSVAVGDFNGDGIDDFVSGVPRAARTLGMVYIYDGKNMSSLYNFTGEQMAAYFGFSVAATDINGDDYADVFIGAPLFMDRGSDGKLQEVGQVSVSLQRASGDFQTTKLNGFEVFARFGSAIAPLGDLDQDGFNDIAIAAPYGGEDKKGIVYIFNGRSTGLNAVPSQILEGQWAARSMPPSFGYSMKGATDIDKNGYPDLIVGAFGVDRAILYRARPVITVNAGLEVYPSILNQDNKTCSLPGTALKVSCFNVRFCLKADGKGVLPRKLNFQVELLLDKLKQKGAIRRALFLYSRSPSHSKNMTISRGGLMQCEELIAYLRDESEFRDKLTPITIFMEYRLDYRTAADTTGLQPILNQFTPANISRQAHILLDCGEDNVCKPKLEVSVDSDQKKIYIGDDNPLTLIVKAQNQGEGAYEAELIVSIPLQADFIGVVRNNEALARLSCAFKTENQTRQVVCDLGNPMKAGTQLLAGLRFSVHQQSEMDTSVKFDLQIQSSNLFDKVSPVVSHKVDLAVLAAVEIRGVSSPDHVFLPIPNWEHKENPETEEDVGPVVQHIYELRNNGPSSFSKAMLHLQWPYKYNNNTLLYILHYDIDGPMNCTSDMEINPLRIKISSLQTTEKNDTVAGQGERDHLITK
T1 sequence (P06756 891-1048 limits assumed): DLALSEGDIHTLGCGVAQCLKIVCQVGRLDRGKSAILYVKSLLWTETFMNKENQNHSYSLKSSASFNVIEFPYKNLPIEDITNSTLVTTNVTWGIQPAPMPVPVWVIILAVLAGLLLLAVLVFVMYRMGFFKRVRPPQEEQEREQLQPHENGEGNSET
T1 sequence (P18564 22-788): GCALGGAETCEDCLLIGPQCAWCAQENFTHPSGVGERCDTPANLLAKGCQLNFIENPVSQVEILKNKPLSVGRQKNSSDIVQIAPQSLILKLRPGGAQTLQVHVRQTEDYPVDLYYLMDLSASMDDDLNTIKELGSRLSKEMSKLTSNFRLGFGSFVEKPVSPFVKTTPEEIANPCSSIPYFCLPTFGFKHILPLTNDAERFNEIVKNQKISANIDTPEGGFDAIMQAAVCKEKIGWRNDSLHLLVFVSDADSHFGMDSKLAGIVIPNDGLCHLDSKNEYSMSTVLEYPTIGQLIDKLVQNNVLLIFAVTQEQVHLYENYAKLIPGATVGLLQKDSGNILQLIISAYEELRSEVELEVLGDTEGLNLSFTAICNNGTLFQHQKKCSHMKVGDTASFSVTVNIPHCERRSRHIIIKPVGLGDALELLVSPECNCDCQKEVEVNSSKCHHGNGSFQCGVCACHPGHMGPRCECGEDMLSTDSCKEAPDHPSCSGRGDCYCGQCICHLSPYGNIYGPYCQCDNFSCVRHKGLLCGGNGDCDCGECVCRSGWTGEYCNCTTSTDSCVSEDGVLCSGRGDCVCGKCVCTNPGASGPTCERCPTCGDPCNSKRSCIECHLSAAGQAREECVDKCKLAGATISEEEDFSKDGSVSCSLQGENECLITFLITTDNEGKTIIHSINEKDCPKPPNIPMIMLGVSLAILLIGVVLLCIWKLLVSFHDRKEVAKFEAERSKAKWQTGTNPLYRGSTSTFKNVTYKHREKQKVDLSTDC
Procedure: Test Example 2 was performed by partially modifying the method of Henderson et al. (Nat Med., 19 (12), 1617-24, 2013). In Test Example 2, the same reagents as in Test Example 1 were used unless otherwise specified.
Recombinant human LAP protein (manufactured by R&D Systems, Inc., 246-LP-025) was prepared at […] with PBS, dispensed at 100 μL/well to a 96-well plate, and left standing overnight. The plate was washed with HBSS, then subjected to blocking treatment with DMEM containing 1% BSA, and used as a coated plate in the adhesion test.
HT-29 cells cultured in McCoy's 5A medium (manufactured by Thermo Fisher Scientific, Inc., 16600) containing 10% FBS and 1% penicillin/streptomycin/amphotericin B were recovered and suspended in DMEM containing 0.1% BSA and 200 μM MnCl2 to prepare a cell suspension. A test compound was added thereto.
The cell suspension of 5×10^5 cells/mL containing the test compound was added at 100 μL/well to the coated plate and left standing for 1 hour in a 5% CO2 incubator (37° C.). One hour later, the supernatant was removed, and the plate was washed with HBSS containing 200 μM MnCl2. The cells that adhered to each well in the plate were stained with crystal violet, and the cells were lysed, followed by absorbance measurement. Inhibition without substrate coating was defined as 100% inhibition, and inhibition when DMSO was added instead of the test compound was defined as 0% inhibition. The rate of inhibition of cell adhesion by the test compound was calculated according to the following expression.
Rate of inhibition of cell adhesion (%)=[1−{(Absorbance in the case of adding the test compound)−(Absorbance without substrate coating)}/{(Absorbance in the case of adding DMS)−(Absorbance without substrate coating)}]×100
An IC50 value was calculated from the rate of inhibition of cell adhesion by the test compound. A: IC50<3 nM, B: 3 nM≤IC50<10 nM, C: 10 nM≤IC50<30 nM, D: 30 nM≤IC50<100 nM, or E: IC50≥100 nM.

SMILES	Papp A→B at 90 min, 10 μM [1]	IC50 (αvβ6)
O=C(O)C[C@H](NC(=O)CNC(=O)c1cc(NC2=NCC(F)CN2)c2cn[nH]c2c1)c1cc(Cl)cc(Cl)c1 (stereo partly drawn) [Example 17-(b), (3S)-3-(3,5-dichlorophenyl)-3-(2-(4-((5-fluoro-1,4,5,6-tetrahydropyrimidin-2-yl)amino)-1H-indazole-6-carboxamido)acetamido)propanoic acid]	> 1 ×10⁻⁶ cm/s	3 to 10 nM
O=C(O)C[C@H](NC(=O)CNC(=O)c1cc(NC2=NCC(F)CN2)c2cn[nH]c2c1)c1cc(Cl)cc(Br)c1 (stereo partly drawn) [Example 18-(b), (3S)-3-(3-bromo-5-chlorophenyl)-3-(2-(4-((5-fluoro-1,4,5,6-tetrahydropyrimidin-2-yl)amino)-1H-indazole-6-carboxamido)acetamido)propanoic acid]	> 1 ×10⁻⁶ cm/s	< 3 nM
O=C(O)C[C@H](NC(=O)CNC(=O)c1cc(NC2=NCC(F)CN2)c2cn[nH]c2c1)c1cc(Br)cc(Br)c1 (stereo partly drawn) [Example 19-(b), (3S)-3-(3,5-dibromophenyl)-3-(2-(4-((5-fluoro-1,4,5,6-tetrahydropyrimidin-2-yl)amino)-1H-indazole-6-carboxamido)acetamido)propanoic acid]	> 1 ×10⁻⁶ cm/s	< 3 nM
O=C(O)C[C@H](NC(=O)CNC(=O)c1cc(NC2=NCC(F)CN2)c2cn[nH]c2c1)c1cc(Br)cc(I)c1 (stereo partly drawn) [Example 20-(b), (3S)-3-(3-bromo-5-iodophenyl)-3-(2-(4-((5-fluoro-1,4,5,6-tetrahydropyrimidin-2-yl)amino)-1H-indazole-6-carboxamido)acetamido)propanoic acid]	> 1 ×10⁻⁶ cm/s	< 3 nM
O=C(O)C[C@H](NC(=O)CNC(=O)c1cc(NC2=NCC(F)CN2)c2cn[nH]c2c1)c1cc(Cl)cc(I)c1 (stereo partly drawn) [Example 21-(b), (3S)-3-(3-chloro-5-iodophenyl)-3-(2-(4-((5-fluoro-1,4,5,6-tetrahydropyrimidin-2-yl)amino)-1H-indazole-6-carboxamido)acetamido)propanoic acid]	> 1 ×10⁻⁶ cm/s	< 3 nM
O=C(O)C[C@H](NC(=O)CNC(=O)c1cc(NC2=NCC(F)CN2)c2cn[nH]c2c1)c1cc(Cl)ccc1F (stereo partly drawn) [Example 22-(b), (3S)-3-(5-chloro-2-fluorophenyl)-3-(2-(4-((5-fluoro-1,4,5,6-tetrahydropyrimidin-2-yl)amino)-1H-indazole-6-carboxamido)acetamido)propanoic acid]	> 1 ×10⁻⁶ cm/s	3 to 10 nM
O=C(O)C[C@H](NC(=O)CNC(=O)c1cc(NC2=NCC(F)CN2)c2cn[nH]c2c1)c1cc(Br)ccc1F (stereo partly drawn) [Example 23-(b), (3S)-3-(5-bromo-2-fluorophenyl)-3-(2-(4-((5-fluoro-1,4,5,6-tetrahydropyrimidin-2-yl)amino)-1H-indazole-6-carboxamido)acetamido)propanoic acid]	> 1 ×10⁻⁶ cm/s	3 to 10 nM
O=C(O)C[C@H](NC(=O)CNC(=O)c1cc(NC2=NCC(F)CN2)c2cn[nH]c2c1)c1cc(OC(F)F)cc(C(F)(F)F)c1 (stereo partly drawn) [Example 24-(b), (3S)-3-(3-(difluoromethoxy)-5-(trifluoromethyl)phenyl)-3-(2-(4-((5-fluoro-1,4,5,6-tetrahydropyrimidin-2-yl)amino)-1H-indazole-6-carboxamido)acetamido)propanoic acid]	0.5 to 1 ×10⁻⁶ cm/s	< 3 nM
O=C(O)C[C@H](NC(=O)CNC(=O)c1cc(NC2=NCC(F)CN2)c2cn[nH]c2c1)c1cc(Cl)cc(OC(F)F)c1 (stereo partly drawn) [Example 25-(b), (3S)-3-(3-chloro-5-(difluoromethoxy)phenyl)-3-(2-(4-((5-fluoro-1,4,5,6-tetrahydropyrimidin-2-yl)amino)-1H-indazole-6-carboxamido)acetamido)propanoic acid]	> 1 ×10⁻⁶ cm/s	< 3 nM
O=C(O)C[C@H](NC(=O)CNC(=O)c1cc(NC2=NCC(F)CN2)c2cn[nH]c2c1)c1cc(Br)cc(OC(F)F)c1 (stereo partly drawn) [Example 26-(b), (3S)-3-(3-bromo-5-(difluoromethoxy)phenyl)-3-(2-(4-((5-fluoro-1,4,5,6-tetrahydropyrimidin-2-yl)amino)-1H-indazole-6-carboxamido)acetamido)propanoic acid]	> 1 ×10⁻⁶ cm/s	< 3 nM
O=C(O)C[C@H](NC(=O)CNC(=O)c1cc(NC2=NCC(F)CN2)c2cn[nH]c2c1)c1ccc(F)c(OC(F)F)c1 (stereo partly drawn) [Example 27-(b), (3S)-3-(3-(difluoromethoxy)-4-fluorophenyl)-3-(2-(4-((5-fluoro-1,4,5,6-tetrahydropyrimidin-2-yl)amino)-1H-indazole-6-carboxamido)acetamido)propanoic acid]	> 1 ×10⁻⁶ cm/s	3 to 10 nM
O=C(O)C[C@H](NC(=O)CNC(=O)c1cc(NC2=NCC(F)CN2)c2cn[nH]c2c1)c1cc(OC(F)F)ccc1F (stereo partly drawn) [Example 28-(b), (3S)-3-(5-(difluoromethoxy)-2-fluorophenyl)-3-(2-(4-((5-fluoro-1,4,5,6-tetrahydropyrimidin-2-yl)amino)-1H-indazole-6-carboxamido)acetamido)propanoic acid]	> 1 ×10⁻⁶ cm/s	< 3 nM
O=C(O)C[C@H](NC(=O)CNC(=O)c1cc(NC2=NCC(F)CN2)c2cn[nH]c2c1)c1cc(OC(F)F)cc(-n2cccn2)c1 (stereo partly drawn) [Example 29-(b), (3S)-3-(3-(difluoromethoxy)-5-(1H-pyrazol-1-yl)phenyl)-3-(2-(4-((5-fluoro-1,4,5,6-tetrahydropyrimidin-2-yl)amino)-1H-indazole-6-carboxamido)acetamido)propanoic acid]	0.1 to 0.5 ×10⁻⁶ cm/s	< 3 nM
O=C(O)C[C@H](NC(=O)CNC(=O)c1cc(NC2=NCC(F)CN2)c2cn[nH]c2c1)c1cc(OC(F)F)cc(OC(F)F)c1 (stereo partly drawn) [Example 30-(b), (3S)-3-(3,5-bis(difluoromethoxy)phenyl)-3-(2-(4-((5-fluoro-1,4,5,6-tetrahydropyrimidin-2-yl)amino)-1H-indazole-6-carboxamido)acetamido)propanoic acid]	0.5 to 1 ×10⁻⁶ cm/s	< 3 nM
O=C(O)C[C@H](NC(=O)CNC(=O)c1cc(NC2=NCC(F)CN2)c2cn[nH]c2c1)c1cc(Cl)cc(OC(F)(F)F)c1 (stereo partly drawn) [Example 31-(b), (3S)-3-(3-chloro-5-(trifluoromethoxy)phenyl)-3-(2-(4-((5-fluoro-1,4,5,6-tetrahydropyrimidin-2-yl)amino)-1H-indazole-6-carboxamido)acetamido)propanoic acid]	> 1 ×10⁻⁶ cm/s	< 3 nM
O=C(O)C[C@H](NC(=O)CNC(=O)c1cc(NC2=NCC(F)CN2)c2cn[nH]c2c1)c1cc(Br)cc(OC(F)(F)F)c1 (stereo partly drawn) [Example 32-(b), (3S)-3-(3-bromo-5-(trifluoromethoxy)phenyl)-3-(2-(4-((5-fluoro-1,4,5,6-tetrahydropyrimidin-2-yl)amino)-1H-indazole-6-carboxamido)acetamido)propanoic acid]	> 1 ×10⁻⁶ cm/s	< 3 nM
